Columns and labels:
[1] = system: A549; assay: Cytotoxicity against human A549 cells after 72 hrs by CCK8 assay; assay type: functional, cell-based; details: A549, 72 h
[2] = system: HCT-116; assay: Cytotoxicity against human HCT116 cells after 72 hrs by CCK8 assay; assay type: functional, cell-based; details: HCT-116, 72 h
[3] = system: PC-14; assay: Cytotoxicity against human PC14 cells after 72 hrs by CCK8 assay; assay type: functional, cell-based; details: PC-14, 72 h
[4] = system: HFL1; assay: Cytotoxicity against human HFL1 cells after 72 hrs by CCK8 assay; assay type: cell-based; details: HFL1, 72 h
[5] = system: CCD-18Co; assay: Cytotoxicity against human CCD-18Co cells after 72 hrs by CCK8 assay; assay type: cell-based
[6] = molecular target: Histone-lysine N-methyltransferase, H3 lysine-79 specific (Homo sapiens, UniProt Q8TEK3); assay: Inhibition of DOT1L in human THP1 cells assessed as reduction in H3K79 methylation measured after 7 days; assay type: cell-based
Chain of Histone-lysine N-methyltransferase, H3 lysine-79 specific (Q8TEK3 whole entry): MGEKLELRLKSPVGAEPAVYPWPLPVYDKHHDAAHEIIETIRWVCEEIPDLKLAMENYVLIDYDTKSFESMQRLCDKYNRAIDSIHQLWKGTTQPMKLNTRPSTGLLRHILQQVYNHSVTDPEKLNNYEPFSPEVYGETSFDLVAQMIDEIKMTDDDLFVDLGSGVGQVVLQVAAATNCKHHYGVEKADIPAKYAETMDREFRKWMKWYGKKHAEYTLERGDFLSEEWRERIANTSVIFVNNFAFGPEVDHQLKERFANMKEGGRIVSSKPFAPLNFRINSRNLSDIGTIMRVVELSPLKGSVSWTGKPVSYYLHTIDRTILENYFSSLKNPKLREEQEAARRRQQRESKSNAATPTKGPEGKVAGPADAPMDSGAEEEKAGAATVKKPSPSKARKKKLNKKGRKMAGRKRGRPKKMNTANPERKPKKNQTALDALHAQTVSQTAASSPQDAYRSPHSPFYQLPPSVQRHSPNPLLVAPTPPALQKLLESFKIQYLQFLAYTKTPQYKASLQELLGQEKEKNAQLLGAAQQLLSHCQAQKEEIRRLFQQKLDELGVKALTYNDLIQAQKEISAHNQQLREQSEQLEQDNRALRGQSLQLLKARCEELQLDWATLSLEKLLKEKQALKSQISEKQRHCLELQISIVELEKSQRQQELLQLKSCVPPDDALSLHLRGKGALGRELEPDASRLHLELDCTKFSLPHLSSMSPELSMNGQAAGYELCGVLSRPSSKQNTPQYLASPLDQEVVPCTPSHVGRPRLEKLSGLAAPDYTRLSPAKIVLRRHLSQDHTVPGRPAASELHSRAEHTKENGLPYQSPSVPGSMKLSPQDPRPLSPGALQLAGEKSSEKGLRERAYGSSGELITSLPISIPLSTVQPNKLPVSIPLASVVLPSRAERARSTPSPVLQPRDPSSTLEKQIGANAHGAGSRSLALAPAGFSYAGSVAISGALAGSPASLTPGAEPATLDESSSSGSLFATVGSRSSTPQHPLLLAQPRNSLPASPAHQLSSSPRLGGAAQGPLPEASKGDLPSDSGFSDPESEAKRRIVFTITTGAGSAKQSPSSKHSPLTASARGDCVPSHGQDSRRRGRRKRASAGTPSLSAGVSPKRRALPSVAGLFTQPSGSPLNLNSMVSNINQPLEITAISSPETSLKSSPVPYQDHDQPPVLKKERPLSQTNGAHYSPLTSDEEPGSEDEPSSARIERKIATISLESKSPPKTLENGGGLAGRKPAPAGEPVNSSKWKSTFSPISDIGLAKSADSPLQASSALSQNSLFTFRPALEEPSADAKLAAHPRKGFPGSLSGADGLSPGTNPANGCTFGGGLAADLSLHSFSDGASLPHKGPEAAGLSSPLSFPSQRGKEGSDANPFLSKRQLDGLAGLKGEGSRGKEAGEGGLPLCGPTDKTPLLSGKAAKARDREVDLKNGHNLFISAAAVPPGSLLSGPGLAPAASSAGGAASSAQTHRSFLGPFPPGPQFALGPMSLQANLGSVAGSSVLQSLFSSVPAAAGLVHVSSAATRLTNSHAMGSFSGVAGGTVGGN

[7] = molecular target: Histone-lysine N-methyltransferase EZH2 (Homo sapiens, UniProt Q15910); assay: Inhibition of EZH2 (unknown origin)
Chain of Histone-lysine N-methyltransferase EZH2 (Q15910 whole entry): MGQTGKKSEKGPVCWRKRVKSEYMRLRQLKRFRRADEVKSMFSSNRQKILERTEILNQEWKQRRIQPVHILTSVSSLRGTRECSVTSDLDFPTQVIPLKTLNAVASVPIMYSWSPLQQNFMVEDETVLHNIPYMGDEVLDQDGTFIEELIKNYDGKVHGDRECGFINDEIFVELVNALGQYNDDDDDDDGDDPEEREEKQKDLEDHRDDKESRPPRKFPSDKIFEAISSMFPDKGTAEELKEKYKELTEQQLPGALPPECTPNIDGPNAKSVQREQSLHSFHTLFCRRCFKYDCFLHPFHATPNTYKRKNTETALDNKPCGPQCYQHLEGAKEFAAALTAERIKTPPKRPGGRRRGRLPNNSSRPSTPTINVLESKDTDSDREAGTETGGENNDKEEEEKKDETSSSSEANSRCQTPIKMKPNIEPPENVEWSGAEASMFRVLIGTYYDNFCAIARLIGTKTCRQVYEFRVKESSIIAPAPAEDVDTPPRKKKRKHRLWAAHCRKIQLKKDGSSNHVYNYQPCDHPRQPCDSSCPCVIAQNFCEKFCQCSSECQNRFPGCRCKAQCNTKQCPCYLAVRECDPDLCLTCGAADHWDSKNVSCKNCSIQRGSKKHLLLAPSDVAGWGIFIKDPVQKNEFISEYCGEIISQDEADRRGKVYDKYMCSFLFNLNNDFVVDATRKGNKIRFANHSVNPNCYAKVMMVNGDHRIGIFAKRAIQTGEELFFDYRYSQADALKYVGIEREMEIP

[8] = molecular target: Protein arginine N-methyltransferase 5 (Homo sapiens, UniProt O14744); assay: Inhibition of PRMT5 (unknown origin)
Chain of Protein arginine N-methyltransferase 5 (O14744 whole entry): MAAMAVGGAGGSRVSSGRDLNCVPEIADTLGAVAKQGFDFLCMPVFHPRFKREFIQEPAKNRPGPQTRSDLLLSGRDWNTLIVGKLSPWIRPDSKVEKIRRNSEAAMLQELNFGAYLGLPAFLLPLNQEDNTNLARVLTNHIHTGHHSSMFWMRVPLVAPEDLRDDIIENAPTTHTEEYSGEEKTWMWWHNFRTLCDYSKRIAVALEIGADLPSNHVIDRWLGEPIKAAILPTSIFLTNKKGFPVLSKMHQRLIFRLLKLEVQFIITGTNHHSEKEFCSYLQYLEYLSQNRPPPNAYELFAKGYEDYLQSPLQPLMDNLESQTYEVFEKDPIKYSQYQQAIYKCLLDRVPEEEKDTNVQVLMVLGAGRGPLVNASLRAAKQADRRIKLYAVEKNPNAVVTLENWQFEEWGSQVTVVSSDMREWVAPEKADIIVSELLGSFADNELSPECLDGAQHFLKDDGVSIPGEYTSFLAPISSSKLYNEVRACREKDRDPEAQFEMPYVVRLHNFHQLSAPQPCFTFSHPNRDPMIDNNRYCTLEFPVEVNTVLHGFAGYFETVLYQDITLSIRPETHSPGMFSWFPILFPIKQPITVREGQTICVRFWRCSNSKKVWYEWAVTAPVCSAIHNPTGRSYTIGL

[9] = molecular target: T1, Histone-arginine methyltransferase CARM1 (Homo sapiens, UniProt Q86X55); assay: Inhibition of CARM1 (unknown origin)
T1 sequence (Q86X55 whole entry): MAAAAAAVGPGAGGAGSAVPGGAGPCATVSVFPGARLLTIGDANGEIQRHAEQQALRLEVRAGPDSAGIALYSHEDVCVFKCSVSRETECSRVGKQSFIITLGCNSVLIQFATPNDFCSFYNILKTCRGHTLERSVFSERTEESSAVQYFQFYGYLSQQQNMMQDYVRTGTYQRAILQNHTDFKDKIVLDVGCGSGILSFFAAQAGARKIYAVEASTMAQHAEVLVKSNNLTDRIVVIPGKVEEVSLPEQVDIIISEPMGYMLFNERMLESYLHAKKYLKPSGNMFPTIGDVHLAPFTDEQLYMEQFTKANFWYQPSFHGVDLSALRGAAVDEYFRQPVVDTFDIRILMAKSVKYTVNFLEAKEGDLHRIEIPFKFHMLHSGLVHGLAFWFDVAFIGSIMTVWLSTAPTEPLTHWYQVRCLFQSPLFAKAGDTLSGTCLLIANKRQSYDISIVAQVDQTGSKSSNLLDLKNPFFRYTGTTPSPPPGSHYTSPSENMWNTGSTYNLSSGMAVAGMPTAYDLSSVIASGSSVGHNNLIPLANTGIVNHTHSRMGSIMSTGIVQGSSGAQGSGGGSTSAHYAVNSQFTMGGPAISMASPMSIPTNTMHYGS

[10] = molecular target: T2, Histone-lysine N-methyltransferase EHMT2 (Homo sapiens, UniProt Q96KQ7); assay: Inhibition of EHMT2 (unknown origin)
T2 sequence (Q96KQ7 whole entry): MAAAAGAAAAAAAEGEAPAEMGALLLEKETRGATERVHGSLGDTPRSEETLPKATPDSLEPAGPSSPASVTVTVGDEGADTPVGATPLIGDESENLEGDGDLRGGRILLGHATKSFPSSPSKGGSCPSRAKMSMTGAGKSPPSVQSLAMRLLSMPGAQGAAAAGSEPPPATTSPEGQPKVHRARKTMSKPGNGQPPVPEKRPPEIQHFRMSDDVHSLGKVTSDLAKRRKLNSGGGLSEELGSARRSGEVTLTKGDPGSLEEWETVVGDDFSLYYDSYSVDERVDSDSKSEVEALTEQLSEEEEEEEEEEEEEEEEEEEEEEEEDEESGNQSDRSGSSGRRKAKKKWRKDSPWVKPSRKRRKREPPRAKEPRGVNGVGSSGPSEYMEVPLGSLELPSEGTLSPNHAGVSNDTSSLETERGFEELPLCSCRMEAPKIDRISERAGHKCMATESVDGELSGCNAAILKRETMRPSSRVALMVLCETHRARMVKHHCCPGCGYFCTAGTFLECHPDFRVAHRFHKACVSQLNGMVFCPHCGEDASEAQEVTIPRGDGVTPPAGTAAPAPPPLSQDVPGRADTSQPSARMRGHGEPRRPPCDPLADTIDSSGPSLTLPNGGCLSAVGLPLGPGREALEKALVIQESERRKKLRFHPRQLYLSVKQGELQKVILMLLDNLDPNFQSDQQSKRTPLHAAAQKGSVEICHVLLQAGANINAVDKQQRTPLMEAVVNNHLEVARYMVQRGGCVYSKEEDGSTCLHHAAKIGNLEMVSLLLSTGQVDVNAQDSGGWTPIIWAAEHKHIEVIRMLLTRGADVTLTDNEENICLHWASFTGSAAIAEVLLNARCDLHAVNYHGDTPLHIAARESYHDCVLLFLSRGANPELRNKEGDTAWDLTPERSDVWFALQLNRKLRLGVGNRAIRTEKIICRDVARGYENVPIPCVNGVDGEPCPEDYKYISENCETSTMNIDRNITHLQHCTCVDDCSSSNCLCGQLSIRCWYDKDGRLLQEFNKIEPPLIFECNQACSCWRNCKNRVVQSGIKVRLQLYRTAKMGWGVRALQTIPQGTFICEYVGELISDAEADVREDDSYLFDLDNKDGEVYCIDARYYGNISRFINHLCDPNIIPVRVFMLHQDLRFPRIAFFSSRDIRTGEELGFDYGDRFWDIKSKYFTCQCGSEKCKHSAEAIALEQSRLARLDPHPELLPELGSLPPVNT

SMILES	IC50 [1] [µM]	IC50 [2] [µM]	IC50 [3] [µM]	IC50 [4] [µM]	IC50 [5] [µM]	IC50 [6] [µM]	IC50 [7] [µM]	IC50 [8] [µM]	IC50 [9] [µM]	IC50 [10] [µM]
COc1cc(OC)c(-c2cn3cc(NCCN)c(OC)cc3n2)cc1Cl	< 10	< 10	< 10	< 10	< 10	–	–	–	–	–
CC(CNC(=O)Nc1ccc(C(C)(C)C)cc1)CN(C)C[C@H]1O[C@@H](n2cnc3c(N)ncnc32)[C@H](O)[C@@H]1O (stereo not given in full)	–	–	–	–	–	< 0.1	> 50	> 50	> 50	> 50

— ChEMBL document CHEMBL4400532, “Histone methyl transferases: A class of epigenetic opportunities to counter uncontrolled cell proliferation” (Eur J Med Chem, 2019)
